Measured values as given in PubChem BioAssay AID330 (DTP/NCI, 2004).
Values joined by “and” are separate entries in the source; they are usually repeats but may differ in a detail not shown here. Identical values can stand only once. Inconclusive results and toxic doses are left out. The calls were made as follows: active = survival T/C of 150% or more; inactive = T/C below 125% in these data. Peptide text beside a SMILES is read from it. * marks the point of attachment. Trt = c1ccc(C(c2ccccc2)(c2ccccc2)*)cc1; Cbz = O=C(OCc1ccccc1)*; Bn = c1ccc(C*)cc1; βAla = NCCC(=O)O

Test system: P388 leukemia ip, CD2F1 mice, survival T/C
Assay: NCI In Vivo Anticancer Drug Screen. Data for tumor model P388 Leukemia (intraperitoneal) in CD2F1 (CDF1) mice
Conditions: endpoint: median survival time, higher = longer survival
In short: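 Mice carrying the transplanted tumor received test compound or vehicle. Survival was recorded in each group, and the value is the treated-group measurement divided by that of the vehicle-treated control group.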

[1] = dose: 12.5 mg/kg/injection, schedule: Q01DX005 (ip), vehicle: Klucel (hydroxypropylcellulose) (HPC)
[2] = dose: 25.0 mg/kg/injection, schedule: Q01DX005 (ip), vehicle: Klucel (hydroxypropylcellulose) (HPC)
[3] = dose: 50.0 mg/kg/injection, schedule: Q01DX005 (ip), vehicle: Klucel (hydroxypropylcellulose) (HPC)
[4] = dose: 100.0 mg/kg/injection, schedule: Q01DX005 (ip), vehicle: Klucel (hydroxypropylcellulose) (HPC)
[5] = dose: 200.0 mg/kg/injection, schedule: Q01DX005 (ip), vehicle: Klucel (hydroxypropylcellulose) (HPC)
[6] = dose: 100.0 mg/kg/injection, schedule: Q04DX003 (ip), vehicle: Klucel (hydroxypropylcellulose) (HPC)
[7] = dose: 50.0 mg/kg/injection, schedule: Q01DX005 (ip), vehicle: saline with Tween-80
[8] = dose: 100.0 mg/kg/injection, schedule: Q01DX005 (ip), vehicle: saline with Tween-80
[9] = dose: 200.0 mg/kg/injection, schedule: Q01DX005 (ip), vehicle: saline with Tween-80
[10] = dose: 50.0 mg/kg/injection, schedule: Q01DX005 (ip), vehicle: saline
[11] = dose: 100.0 mg/kg/injection, schedule: Q01DX005 (ip), vehicle: saline
[12] = dose: 50.0 mg/kg/injection, schedule: Q01DX009 (ip), vehicle: Klucel (hydroxypropylcellulose) (HPC)
[13] = dose: 100.0 mg/kg/injection, schedule: Q01DX009 (ip), vehicle: Klucel (hydroxypropylcellulose) (HPC)
[14] = dose: 50.0 mg/kg/injection, schedule: Q01DX009 (ip), vehicle: saline with Tween-80
[15] = dose: 100.0 mg/kg/injection, schedule: Q01DX009 (ip), vehicle: saline with Tween-80
[16] = dose: 60.0 mg/kg/injection, schedule: Q01DX005 (ip), vehicle: saline with Tween-80
[17] = dose: 120.0 mg/kg/injection, schedule: Q01DX005 (ip), vehicle: saline with Tween-80
[18] = dose: 240.0 mg/kg/injection, schedule: Q01DX005 (ip), vehicle: saline with Tween-80

Measured: T/C

COC(=O)C(CSC(c1ccccc1)(c1ccccc1)c1ccccc1)NC(=O)C(CSCc1ccccc1)NC(=O)CCNC(=O)OCc1ccccc1 (stereo not drawn) ({Cbz-βAla}-Cys(Bn)-Cys(Trt)-OMe; configuration not given here)
inactive: dose: 4.0 mg/kg/injection, schedule: Q01DX009 (ip), vehicle: water 102 % of control | dose: 8.0 mg/kg/injection, schedule: Q01DX009 (ip), vehicle: water 100 % of control | [1] 99 % of control | dose: 16.0 mg/kg/injection, schedule: Q01DX009 (ip), vehicle: water 99 % of control | [2] 102 % of control | dose: 32.0 mg/kg/injection, schedule: Q01DX009 (ip), vehicle: water 99 % of control | [3] 102 % of control | dose: 64.0 mg/kg/injection, schedule: Q01DX009 (ip), vehicle: water 89 % of control | [4] 102 % of control | dose: 128.0 mg/kg/injection, schedule: Q01DX009 (ip), vehicle: water 86 % of control | [5] 103 % of control

CS(=O)(=O)Nc1nc2ccccc2c(=O)o1
inactive: dose: 60.0 mg/kg/injection, schedule: Q01DX005 (ip), vehicle: Klucel (hydroxypropylcellulose) (HPC) 107 % of control | dose: 120.0 mg/kg/injection, schedule: Q01DX005 (ip), vehicle: Klucel (hydroxypropylcellulose) (HPC) 102 % of control | dose: 240.0 mg/kg/injection, schedule: Q01DX005 (ip), vehicle: Klucel (hydroxypropylcellulose) (HPC) 99 % of control

Cn1c(-c2ccccc2)c2c(=O)oc3ccccc3c2c1-c1ccccc1
inactive: dose: 25.0 mg/kg/injection, schedule: Q04DX003 (ip), vehicle: Klucel (hydroxypropylcellulose) (HPC) 97 % of control | dose: 50.0 mg/kg/injection, schedule: Q04DX003 (ip), vehicle: Klucel (hydroxypropylcellulose) (HPC) 100 % of control | [6] 88 % of control and 94 % of control

COc1ccc(CCNC(=O)C2CCCOC2C(Cl)Cl)cc1OC (stereo not drawn)
inactive: [7] 97 % of control | [8] 101 % of control | [9] 93 % of control

O=C1c2cc(Cl)ccc2NC(O)c2cccn21 (stereo not drawn)
inactive: dose: 0.1 mg/kg/injection, schedule: Q01DX005 (ip), vehicle: water 93 % of control | dose: 0.2 mg/kg/injection, schedule: Q01DX005 (ip), vehicle: water 89 % of control | dose: 0.4 mg/kg/injection, schedule: Q01DX005 (ip), vehicle: water 90 % of control | dose: 0.8 mg/kg/injection, schedule: Q01DX005 (ip), vehicle: water 98 % of control | dose: 1.6 mg/kg/injection, schedule: Q01DX005 (ip), vehicle: water 98 % of control | dose: 5.0 mg/kg/injection, schedule: Q01DX005 (ip), vehicle: distilled water + Tween-80 95 % of control | dose: 10.0 mg/kg/injection, schedule: Q01DX005 (ip), vehicle: distilled water + Tween-80 101 % of control | dose: 20.0 mg/kg/injection, schedule: Q01DX005 (ip), vehicle: distilled water + Tween-80 95 % of control | dose: 40.0 mg/kg/injection, schedule: Q01DX005 (ip), vehicle: distilled water + Tween-80 92 % of control | dose: 80.0 mg/kg/injection, schedule: Q01DX005 (ip), vehicle: distilled water + Tween-80 93 % of control

Nc1c(C(=O)NCCc2ccccc2)c2nc3c(C(=O)NCCc4ccccc4)ccc(Br)c3oc-2c(Br)c1=O
inactive: [7] 89 % of control | [8] 94 % of control | [9] 99 % of control

CC(=O)OCC#CCN1CCCCCC1
inactive: [10] 91 % of control | [11] 92 % of control

Cc1cccc(Nc2n[nH]c(N)n2)c1
inactive: [12] 91 % of control | [13] 94 % of control

CC(C)NC(=O)OCc1ncn(-c2ccccc2)c1COC(=O)NC(C)C
inactive: [1] 103 % of control | [2] 103 % of control | [3] 87 % of control and 97 % of control | [4] 87 % of control and 91 % of control

CN=C(C)NO
inactive: [10] 106 % of control | [11] 104 % of control | dose: 200.0 mg/kg/injection, schedule: Q01DX005 (ip), vehicle: saline 99 % of control

COc1ccc(C2=NC(c3ccccc3)NC(c3ccccc3)/C2=C/c2ccccc2)cc1 (stereo not drawn)
inactive: dose: 6.25 mg/kg/injection, schedule: Q01DX009 (ip), vehicle: saline with Tween-80 100 % of control | dose: 12.5 mg/kg/injection, schedule: Q01DX009 (ip), vehicle: saline with Tween-80 100 % of control | dose: 25.0 mg/kg/injection, schedule: Q01DX009 (ip), vehicle: saline with Tween-80 105 % of control | [14] 100 % of control

CC(=O)N(CC(=O)Nc1ccc(S(N)(=O)=O)cc1)C(C)C
inactive: [12] 100 % of control | [13] 99 % of control | dose: 200.0 mg/kg/injection, schedule: Q01DX009 (ip), vehicle: Klucel (hydroxypropylcellulose) (HPC) 92 % of control

CC(N1CCOCC1)C(O)(c1ccccc1)c1ccccn1 (stereo not drawn)
inactive: dose: 50.0 mg/kg/injection, schedule: Q01DX005 (ip), vehicle: saline + alcohol 103 % of control | dose: 100.0 mg/kg/injection, schedule: Q01DX005 (ip), vehicle: saline + alcohol 115 % of control

CCOC(=O)C1=S=C(SC)N(C)C1=O
inactive: [14] 107 % of control | [15] 107 % of control

Cn1cnc2cc(N3CCOCC3)c([N+](=O)[O-])cc2c1=O
inactive: [6] 105 % of control | dose: 200.0 mg/kg/injection, schedule: Q04DX003 (ip), vehicle: Klucel (hydroxypropylcellulose) (HPC) 112 % of control | dose: 400.0 mg/kg/injection, schedule: Q04DX003 (ip), vehicle: Klucel (hydroxypropylcellulose) (HPC) 95 % of control

Cc1cnc(C)n2ncnc12
inactive: dose: 100.0 mg/kg/injection, schedule: Q04DX003 (ip), vehicle: saline 93 % of control | dose: 200.0 mg/kg/injection, schedule: Q04DX003 (ip), vehicle: saline 95 % of control | dose: 400.0 mg/kg/injection, schedule: Q04DX003 (ip), vehicle: saline 88 % of control

CC(=O)Nc1cc(Cl)cc2c1-c1ccc(Cl)cc1C2N(C)C (stereo not drawn)
inactive: [3] 96 % of control | [4] 100 % of control | [5] 87 % of control

CC(=O)NNC(=O)C(Cl)Cl
inactive: dose: 12.5 mg/kg/injection, schedule: Q01DX009 (ip), vehicle: saline 92 % of control | dose: 25.0 mg/kg/injection, schedule: Q01DX009 (ip), vehicle: saline 89 % of control | dose: 50.0 mg/kg/injection, schedule: Q01DX009 (ip), vehicle: saline 101 % of control and 90 % of control

Nc1ccc2[se]nc3c2c1C(=O)c1ccccc1-3
inactive: dose: 6.25 mg/kg/injection, schedule: Q01DX005 (ip), vehicle: Klucel (hydroxypropylcellulose) (HPC) 98 % of control | [1] 98 % of control | [2] 101 % of control

CCOC(=O)c1c[nH]n2ccnc12
inactive: dose: 100.0 mg/kg/injection, schedule: Q04DX002 (ip), vehicle: saline with Tween-80 100 % of control | dose: 200.0 mg/kg/injection, schedule: Q04DX002 (ip), vehicle: saline with Tween-80 103 % of control

O=C1CCC(c2nc3ccccc3[nH]2)N1Cc1ccc(Cl)cc1 (stereo not drawn)
inactive: [16] 108 % of control | [17] 90 % of control | [18] 86 % of control

Cc1ccc(S(=O)(=O)CC(=O)c2ccc(Br)cc2)cc1
inactive: [15] 92 % of control

COc1cc(/C=C/C(=O)NCCCCN=[N+]=[N-])ccc1OCc1ccccc1
inactive: [16] 93 % of control | [17] 96 % of control | [18] 97 % of control

Cc1ccc(NC2=C([n+]3ccc(C)cc3)C(=O)c3ccccc3C2=O)cc1
inactive: dose: 12.5 mg/kg/injection, schedule: Q01DX005 (ip), vehicle: saline with Tween-80 100 % of control | dose: 25.0 mg/kg/injection, schedule: Q01DX005 (ip), vehicle: saline with Tween-80 109 % of control | [7] 124 % of control

O=C(O)C1C=CC2OC2C1C(=O)O (stereo not drawn)
inactive: dose: 100.0 mg/kg/injection, schedule: Q01DX001 (ip), vehicle: Klucel (hydroxypropylcellulose) (HPC) 87 % of control | dose: 200.0 mg/kg/injection, schedule: Q01DX001 (ip), vehicle: Klucel (hydroxypropylcellulose) (HPC) 92 % of control | dose: 400.0 mg/kg/injection, schedule: Q01DX001 (ip), vehicle: Klucel (hydroxypropylcellulose) (HPC) 93 % of control

OCC(O)C(O)C(O)c1nn(-c2ccccc2)c2nc3ccc(Cl)cc3nc12 (stereo not drawn)
inactive: [3] 90 % of control | [4] 90 % of control | [5] 89 % of control
